The numbers were not newly measured in patent US20120178700A1, “PEPTIDOMIMETIC MACROCYCLES” (Aileron Therapeutics, Inc., priority 2008, published 2012), which cites them from elsewhere.

The target in one data set is c-Myc/Max dimerization (Homo sapiens, UniProt P01106). The following applies: for preference for inhibition of c-Myc/Max association over related transcription factors: in the presence of their DNA binding motif in vitro.
Data set [1] has as its system c-Myc-dependent oncogenic transformation. The following applies: versus transformation dependent on Jun.

Chain of c-Myc/Max dimerization (P01106 whole entry): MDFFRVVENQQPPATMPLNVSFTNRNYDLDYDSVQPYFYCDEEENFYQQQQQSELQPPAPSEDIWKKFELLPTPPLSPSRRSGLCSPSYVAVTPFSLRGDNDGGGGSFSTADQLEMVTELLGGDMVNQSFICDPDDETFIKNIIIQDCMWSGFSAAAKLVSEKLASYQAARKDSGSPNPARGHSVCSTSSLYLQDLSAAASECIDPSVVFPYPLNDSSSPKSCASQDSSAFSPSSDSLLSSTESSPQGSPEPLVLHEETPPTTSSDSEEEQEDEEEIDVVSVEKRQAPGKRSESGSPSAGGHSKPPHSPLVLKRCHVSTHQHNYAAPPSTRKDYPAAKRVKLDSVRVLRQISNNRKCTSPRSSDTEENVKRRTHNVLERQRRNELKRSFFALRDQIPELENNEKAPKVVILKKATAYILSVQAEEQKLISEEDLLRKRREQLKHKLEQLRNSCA

As for `CN(C)CCCNc1cc(O)c2c(c1O)C(=O)c1ccccc1C2=O` [MYRA-A], on c-Myc/Max dimerization, the c-Myc/Max dimerization result is given as “without interfering”. The “inhibition of DNA binding of Myc family proteins” value in the data set on Myc family proteins is on record as “inhibit DNA binding”. For `COc1ccc(CNC(=O)c2cc3nc(-c4cccs4)cc(C(F)(F)F)n3n2)cc1` [Mycro1], on c-Myc/Max dimerization, the “preference for inhibition of c-Myc/Max association over related transcription factors” value is listed as “show a preference”. Regarding `O=C(NCc1cccs1)c1cc2nc(-c3cccs3)cc(C(F)(F)F)n2n1` [Mycro2], the “preference for inhibition of c-Myc/Max association over related transcription factors” value at c-Myc/Max dimerization is “show a preference”. Regarding `COc1ccc(CN(C(=O)c2ccccn2)C(C(=O)NC2CCCCC2)c2ccc3cc(OCC(=O)OC(C)(C)C)ccc3c2)cc1` (centres unmarked) [NY2267], the “inhibition of c-Myc-dependent oncogenic transformation” value in data set [1] is listed as “inhibited c-Myc-dependent oncogenic transformation with preference over transformation dependent on Jun”.
